The results in this text go back to patent US8729131B2, “Agomelatine hydrochloride hydrate and preparation thereof” (Les Laboratoires Servier, priority 2010, dated 2014).

Holding throughout (assay type): physicochemical
A short description of data set [1]: Stability test (Chinese Pharmacopoeia): long-term test, closed container for 9 months. The method, then: (§1) The method for stability test as described in Chinese Pharmacopoeia was used in this test. • 1) Affecting factors test (in open container for 10 days): high temperature (60° C.), photostability under strong light (45001×), high humidity (92.5% RH at 25° C.) • 2) Accelerated test (in closed container for 6 months): at 40° C., humidity: 75% RH • 3) Long-term test (in closed container for 9 months): at 25° C., humidity: 60% RH

Data set [2] can be described thus: Stability test: product placed in an incubator at 40° C. for 30 days, determined with HPLC. The note with it: 40° C. incubator. The method, then: Chromatographic conditions: C18 column; mobile phase: 10 mmol/L phosphate buffer (adjusted to pH 7.0 with NaOH): acetonitrile=2:7 (v/v); column temperature: 40° C.; detection wavelength: 220 nm; internal standard method was used on the products of Examples 1 and 2.
Solutions of the products at 1 mg/mL were prepared with the mobile phase. 10 μL of each solution was injected into the liquid chromatograph system and chromatograms were recorded. The results of the purity are shown in Examples 1 and 2.
Some of the product of Example 1 was placed in an incubator at 40° C. for 30 days to determine its stability with HPLC.

Data set [3] is described as follows: Stability test (Chinese Pharmacopoeia): affecting factors test, open container for 10 days. The note with it: open container 10 days; for Water: initial 6.10%; for C1: initial 11.86%; for purity: initial purity 99.72%. As to the method:
as §1

A short description of data set [4]: Stability test (Chinese Pharmacopoeia): accelerated test, closed container for 6 months. As to the method: as §1
Data set [5] can be described thus: Water solubility, HPLC external standard method. As to the method: Using external standard method, the product of Example 1 was tested with HPLC, compared with agomelatine crystalline form II.
The mark [6] stands for this setting: High humidity (92.5% RH at 25° C.).

The structures appear in SMILES notation. Structures can show the parent of a compound that is named as a salt.

Consider `COc1ccc2cccc(CCNC(C)=O)c2c1` [AG · HCl · H2O, agomelatine hydrochloride hydrate], for which the Water in data set [1] (25° C., 60% RH, closed container 9 months, initial 6.10%) is given as 6.00%; in data set [3] (setting [6]) it was 6.03%; in data set [3] (High temperature (60° C.)), 1.00%; in data set [3] (Strong light (45001×)), 5.95%; in data set [4] (40° C., 75% RH, closed container 6 months, initial 6.10%), 6.02%. Besides, the C1 in data set [1] (25° C., 60% RH, closed container 9 months, initial 11.86%) stood at 11.53%; in data set [3] (setting [6]), 11.63%; in data set [3] (High temperature (60° C.)), 1.75%; in data set [3] (Strong light (45001×)), 11.48%; in data set [4] (40° C., 75% RH, closed container 6 months, initial 11.86%) it was 11.65%. Moreover, the purity is 99.74% in data set [1] (25° C., 60% RH, closed container 9 months, initial purity 99.72%); 99.73% in data set [3] (setting [6]); 99.51% in data set [3] (High temperature (60° C.)); 99.67% in data set [3] (Strong light (45001×)); 99.64% in data set [4] (40° C., 75% RH, closed container 6 months, initial purity 99.72%). In addition, the “stability (in words)” value in data set [1] (long-term test) and in data set [4] (accelerated test) was “stable” each time. In addition, the “stability with HPLC” value in data set [2] (Day 0) is recorded as 99.6%; in data set [2] (Day 5) it was 99.5%; in data set [2] (Day 10), 99.5%; in data set [2] (Day 30), 99.5%. Moreover, the Agomelatine content in data set [5] (In 0.1 N HCl, hydrochloride hydrate) worked out at 0.40 mg/mL; in data set [5] (In pH 7.0 buffer, hydrochloride hydrate), 0.30 mg/mL; in data set [5] (In water, hydrochloride hydrate), 0.30 mg/mL. Besides, the “solubility compared with agomelatine per se (in words)” value in data set [5] (in water, in 0.1N HCl, or in pH 7.0 buffer) is “better solubility”.
`COc1ccc2cccc(CCNC(C)=O)c2c1` [AG crystalline form II, N-[2-(7-methoxy-1-naphthyl)pethyl]-acetamide, reference compound]: the Agomelatine content worked out at 0.30 mg/mL in data set [5] (In 0.1 N HCl), 0.25 mg/mL in data set [5] (In pH 7.0 buffer) and 0.26 mg/mL in data set [5] (In water).
